Data on two compounds can be found in PMC9427252, “Study on the Absorption of Arsenic Species in Realgar Based on the Form and Valence” (Evidence-based Complementary and Alternative Medicine : eCAM, 2022).

Series [1] has as its system duodenum, jejunum, and ileum.
The subject of another series is Caco-2 cells. The settings on record: A to B, realgar artificial intestinal dissolved solution.
Where [2] appears, read: rat plasma, oral 0.1 g/kg realgar.

Like-named read-outs stand apart in the source and are kept apart here.

Regarding `O[As](O)O` [AsIII, Arsenite], the “MRT(0-∞)” value (rat, in vivo, po, 0.1 g/kg) amounted to 9.649 h.
As usually defined, the Cmax is the peak of the concentration-time curve. Usually Tmax stands for the time from dosing to the highest level. Regarding `O=[As](O)(O)O` [AsV, Arsenate], the Cout/Cin is > 1 in series [1] (duodenum and jejunum); < 1 in series [1] (ileum); 3.14 ± 0.81 in series [1] (realgar intestinal perfusate, duodenum, time 15); 3.16 ± 0.91 in series [1] (realgar intestinal perfusate, duodenum, time 30); 3.01 ± 0.96 in series [1] (realgar intestinal perfusate, duodenum, time 45); 3.20 ± 1.04 in series [1] (realgar intestinal perfusate, duodenum, time 60). Also, the Cout/Cin in series [1] (realgar intestinal perfusate, duodenum, time 75) is 3.17 ± 0.86; in series [1] (realgar intestinal perfusate, ileum, time 15), 0.78 ± 0.11; in series [1] (realgar intestinal perfusate, ileum, time 30), 0.77 ± 0.10; in series [1] (realgar intestinal perfusate, ileum, time 45), 0.76 ± 0.12; in series [1] (realgar intestinal perfusate, ileum, time 60), 0.78 ± 0.11; in series [1] (realgar intestinal perfusate, ileum, time 75) it was 0.80 ± 0.13. The Cout/Cin in series [1] (realgar intestinal perfusate, jejunum, time 15) worked out at 1.54 ± 0.46; in series [1] (realgar intestinal perfusate, jejunum, time 30) it was 1.46 ± 0.39; in series [1] (realgar intestinal perfusate, jejunum, time 45), 1.50 ± 0.28; in series [1] (realgar intestinal perfusate, jejunum, time 60), 1.34 ± 0.25; in series [1] (realgar intestinal perfusate, jejunum, time 75) it was 1.28 ± 0.24. Besides, the Cumulative transport amount in the series on Caco-2 cells (30 min) came out at 0.23 ± 0.07 ng; in the series on Caco-2 cells (60 min) it was 0.41 ± 0.06 ng; with Caco-2 cells (90 min) it was 1.01 ± 0.16 ng; in the series on Caco-2 cells (120 min) it was 0.84 ± 0.02 ng; in the series with Caco-2 cells (180 min), 1.20 ± 0.15 ng. In addition, under setting [2], the “AUC(0-24)” value is 47.310 ng·h/mL. Besides, the “AUC(0-∞)” value under setting [2] was 47.687 ng·h/mL. Besides, under setting [2], the Cmax was 0.021626 ng/mL. The “MRT(0-∞)” value under setting [2] came to 2.790 h. Under setting [2], the Tmax turned out to be 0.393 h. For the same compound, the t1/2 under setting [2] was determined as 1.775 h.
